Experimental data: patent US6517812B1, “Inhibition of psychostimulant-induced and nicotine-induced craving” (The General Hospital Corporation, priority 1997, dated 2003)
Several values for one entry are separate records, joined by “and”; a condition that tells them apart may be missing. Identical values can stand only once. Like-named read-outs stand apart in the source and are kept apart here.

Key:
Type in all cases: in vivo
[1] = Plasma cocaine levels after IV infusion (liquid chromatography with photodiode array detection); conditions: human, 0.6 mg/kg IV; for Cmax: plasma, iv
Procedure: Sequential 4 ml venous blood samples were collected immediately before and at 1, 3, 5, 10, 15, 30, 60, 90 and 120 minutes following each infusion. The 120 minute sample for the first infusion was also the pre-infusion sample for the second infusion.
Plasma/Urine Levels: Cocaine quantitative assays were performed by the MGH Clinical Chemistry Laboratory using a liquid chromatography with photodiode array detection method they developed (Puopolo et al., 1992, Clin. Chem. 38:1838-1842), with minor modifications (flow rate increased from 2.0 to 2.6 ml/minute and LCPCN column length increased from 150 to 250 mm). Intra-assay imprecision at […] for cocaine is 5.1%, 5.7% and 6.6% respectively.

rat brain regions = experiment: CBV-weighted fMRI with MION contrast in rat after IV cocaine
[2] = test system: cocaine-dependent volunteers; experiment: Behavioral ratings of rush, high, low and craving (integer scale 0 to 3) after cocaine infusion; conditions: human
Text: During FAIR and BOLD infusion scans, behavioral measures of rush, high, low, and craving were obtained in a continuous sequence each minute. Thus, over each 15 second epoch, one rating scale would be projected for the subject's response. Given four scales, it took one minute to cycle through the complete set of scales. Timing of scan initiation, infusion onset and offset, and scan completion were linked with ongoing behavioral reports to allow subsequent correlational analysis between behavioral ratings and fMRI acquisitions. Behavioral responses were acquired with a four-button button-press which had been adapted to the magnet environment by construction with non-magnetic components and filtering of its output at the Faraday shield.
To obtain meaningful behavioral ratings during scanning, subjects were trained beforehand. The day before scanning, subjects were interviewed in depth by one of two board-certified psychiatrists to fully describe their experience of cocaine intake. These descriptions were then categorized by the psychiatrist and subject into four components: the rush, high, low, and craving which were to be rated on an integer scale of 0 (none) to 3 (maximum). The individualized conventions for description of subjective responses were then tested, during the unblinded pre-infusion with 0.2 mg/kg cocaine, on a portable computer with a program simulating that used in the MRI.
Of the four behavioral measures, only craving was defined operationally in terms of the action the individual wanted to engage in (to get more cocaine). The other three behavioral measures, rush, high, and low, were defined in terms of subjective feelings which were not necessarily associated with a behavioral output, or associated with the planning and implementation of physical activity. Thus, by definition, only craving was defined as a motivational state. In general, rush experiences involved physical sensations of elevated heart rate and sweating, along with internal feelings variously characterized as ‘speeding’ sensations and sensations of ‘being out-of-control’. In contrast, the high experience was generally associated with feelings of self-confidence, well-being, and sociability. The low experience encompassed all negative subjective feelings potentially associated with cocaine use such as anxiety, paranoia, dysphoria, or anhedonia; the majority of subjects in this study discussed the low in terms of dysphoric affect distinct from a diminishment in the high experience.
Behavioral Data: The integer output for each behavioral rating was segregated by category of rush, high, low, and craving. For the group data in FIG. 2, the 18 measures for each behavioral category obtained during the 18 minute BOLD infusion scan were averaged for the 9 subjects with both interpretable behavioral data and fMRI data. This averaged data was then utilized in the correlational analysis of the cocaine fMRI data.

[3] = rat frontal cortex, cocaine 0.5 mg/kg IV
[4] = 0.6 mg/kg IV blinded, scale 0-3
[5] = 0.6 mg/kg IV, post-infusion, 0.6 mg/kg

For `COC(=O)[C@H]1[C@@H](OC(=O)c2ccccc2)C[C@@H]2CC[C@H]1N2C` [cocaine], the “time to peak cocaine plasma concentration, mean±SD” value ([1]; 4 subjects with re-test experiments) was 6.0 ± 2.9 min, the “time to peak cocaine plasma concentration, mean±SD” value ([1]; initial series of experiments, 0.6 mg/kg) was 7.6 ± 4.2 min and ~7 min and the Cmax ([1]; 0.6 mg/kg, n=7, range over subjects, read-out: Peak plasma cocaine levels (Cmax), range) was 197 to 893 ng/mL. The Cmax ([1]; 0.6 mg/kg, n=7 subjects with complete data, read-out: Peak plasma cocaine levels (Cmax), mean) was 389 ± 233 ng/mL, the “maximum increase of cortical CBV over baseline” value (rat brain regions; [3]) was 32% and the “time to peak CBV” value (rat brain regions; [3]) was “approximately 3.5 minutes”. The “time of return of CBV to baseline” value (rat brain regions; rat frontal cortex, cocaine 0.5 mg/kg IV, post infusion) was ≤ 25 min, the “time to maximum CBV change, all cortical and subcortical regions” value (rat brain regions; rat, after initiation of 0.5 mg/kg cocaine infusion) was 3 to 6 min and the “increase in CBV at peak, agranular lateral frontal neocortex” value (rat brain regions; rat, cocaine 0.5 mg/kg IV) was ~30%. For the same compound, the “increase in CBV at peak, agranular medial frontal neocortex” value (rat brain regions; rat, cocaine 0.5 mg/kg IV) was “approximately 40%”, the “average CBV response of four subcortical regions relative to five frontal and parietal cortical regions” value (rat brain regions; rat, cocaine 0.5 mg/kg IV, p<0.005) was 45% and the craving rating ([2]; 0.2 mg/kg IV, unblinded) was 1.0±1.3. The high rating ([2]; 0.2 mg/kg IV, unblinded) was 1.7±1.2, the low rating ([2]; 0.2 mg/kg IV, unblinded) was 0.8±0.8 and the rush rating ([2]; 0.2 mg/kg IV, unblinded) was 1.2±1.1. The peak craving rating [2, 4] was 1.3±0.9, the peak high rating [2, 4] was 2.1±0.8 and the peak low rating [2, 4] was 0.9±0.8. The “peak rush rating (mean±SD)” value [2, 4] was 2.2±1.1, the “time of peak high” value ([2]; 0.6 mg/kg IV, post-infusion) was 3 min and the “time of peak rush” value ([2]; 0.6 mg/kg IV, post-infusion) was 3 min. The “time of peak craving” value [2, 5] was 12 min and 11 to 12 min, the “time of peak low” value [2, 5] was 11 min and 11 to 12 min and the craving rating ([2]; retest infusion, four subjects) was 1.0±1.2. The high rating ([2]; retest infusion, four subjects) was 2.3±0.5, the low rating ([2]; retest infusion, four subjects) was 1.0±0.8 and the rush rating ([2]; retest infusion, four subjects) was 1.8±1.0.
